Measurements from patent US12357561B2, “Compositions and uses of alpha-adrenergic agents” (LEVATION PHARMA LTD., priority 2016, dated 2025).

System: New Zealand rabbits
Experiment: Ocular observations after injection of oxymetazoline solutions into the post-septal fat pad of rabbits
Format: in vivo, rabbit
Settings: for Palpebral Reflex / Threat Test: 100 μl post-septal fat pad injection; for Palpebral Reflex / Threat Test / eyelid closure (notes): Right Eye
Protocol: Rabbits without ocular pathology received oxymetazoline solutions by ocular injection. The evolution was tested postoperative, 1, 2, 3, 7, 10, and 14 day after oxymetazoline solutions administration. Eyelids were analyzed by histology at the end of the experiment. Endpoints included inflammation, fibrosis, pre- and post-septal fat, status of levator muscle and Müller's muscle, presence of vascular injury or necrosis or ischemic injury to eyelid tissues.
• Animals: female New Zealand rabbits (2.5-3 kg) • Sedation: atropine sulfate and midazolam IV (ear vein) • Anesthesia: induction with Propofol 1% (10 mg/kg) by ear vein • Maintenance with isoflurane (inhalant anesthesia) • Oxymetazoline solutions • Slit lamp Method Baseline Measures (1st Phase) • I. Animals (n=2); 2.5-3 kg New Zealand rabbit • II. Without sedation and anesthesia • III. Photographic record with a ruler (to serve as a standard measure of distance). Three sets of photos per measurements taken in dim lighting to keep rabbits from squinting • IV. 50 μl of 10% phenylephrine was administered via topical into the right eye (RE) • V. Photographic record with a ruler. Three sets of photos per measurements. After 20-30 minutes post-dose. • VI. Animals returned to animal housing. Test Article (Oxymetazoline Solutions) (2nd Phase) • I. Animals (n=3/each group); 2.5-3 kg New Zealand rabbit • II. Photographic record with a ruler (to serve as a standard measure of distance). Three sets of photos per measurements taken in dim lighting to keep rabbits from squinting. • III. Sedation with atropine sulfate and midazolam • IV. Induction with Propofol • V. Maintenance with isoflurane • VI. Ocular injection of oxymetazoline solutions or PBS (phosphate-buffered saline) • a. Group A: oxymetazoline 1 mg/ml in PBS (RE) and PBS (LE) • b. Group B: oxymetazoline 3 mg/ml in PBS (RE) and PBS (LE) • c. Group C: oxymetazoline 10 mg/ml in PBS (RE) and PBS (LE) All animals were administered 100 μI (0.1 ml) of the oxymetazoline solution (RE) or PBS vehicle control (LE) via an injection into the post-septal fat pad, adjacent to Müller's muscle of both eyelids on Day 0. For this injection, a 30G needle was used; test article was administered at least 4 mm away from the site of the needle entry to prevent reflux of fluid through the hole. • VII. Follow-up. • VIII. Euthanized animals 14 days after the injection of oxymetazoline solutions to process the eyelids tissues. • a. Harvest both eyelids from each animal and store in formalin • b. Histology (H/E staining) Follow-Up Follow-up included: • Eyelid retraction/ptosis measurements & digital photos with eyes directly facing camera and a ruler in the frame of the photograph to standardize distances. Three sets of photos per measurement taken in dim lighting to keep rabbits from squinting. • Slit-lamp biomicroscopy • Daily general health observations • Body weights prior to dosing and prior to sacrifice Study Variables • I. Palpebral fissure distance • II. Margin reflex distance 1 Results • Group A (1 mg/ml) • Notes: • pre-injection.
Group B (3 mg/ml) Notes: • pre-injection.

[1] = Group A 1 mg/ml in PBS, Day 2, animals #1/#2/#3
[2] = Group A 1 mg/ml in PBS, Day 3 morning, animals #1/#2/#3
[3] = Group A 1 mg/ml, Day 2 (3 h post-injection)
[4] = Group B 3 mg/ml in PBS, Day 2, animals #1/#2
[5] = Group B 3 mg/ml in PBS, Day 3 afternoon, animals #1/#2
[6] = Group B 3 mg/ml in PBS, Day 3 morning, animals #1/#2
[7] = Group B 3 mg/ml in PBS, Day 4 morning, animals #1/#2
[8] = Group B 3 mg/ml, Day 2 (3 h post-injection)

Palpebral Reflex [1]: Abolished/Abolished/ | Threat Test [1]: Abolished/Abolished/ | Threat Test (Group A 1 mg/ml in PBS, Day 3 afternoon, animals #1/#2/#3): Delayed/Delayed/Delayed | Palpebral Reflex [2]: Delayed/Delayed/Delayed | Threat Test [2]: Abolished/Abolished/ | Threat Test (Group A 1 mg/ml in PBS, Day 4 afternoon, animals #1/#2/#3): Delayed/Delayed/Delayed | Threat Test (Group A 1 mg/ml in PBS, Day 4 morning, animals #1/#2/#3): Delayed/Delayed/Delayed | ocular discomfort (notes) [3]: Animal show ocular discomfort | Palpebral Reflex [4]: Abolished/Abolished | Threat Test [4]: Abolished/Abolished | Palpebral Reflex [5]: Delayed/Delayed | Threat Test [5]: Abolished/Abolished | Palpebral Reflex [6]: Delayed/Delayed | Threat Test [6]: Abolished/Abolished | Threat Test (Group B 3 mg/ml in PBS, Day 4 afternoon, animals #1/#2): Delayed/Delayed | Palpebral Reflex [7]: Delayed/Delayed | Threat Test [7]: Delayed/Delayed | Threat Test (Group B 3 mg/ml in PBS, Day 5, animals #1/#2): Delayed/ | ocular discomfort (notes) [8]: Animal show ocular discomfort
Compound: Cc1cc(C(C)(C)C)c(O)c(C)c1CC1=NCCN1 [oxymetazoline]
eyelid closure (notes) [3]: pressure applied to close eyelid | eyelid closure (notes) (Group A 1 mg/ml, Day 3 morning): pressure applied to close eyelid | eyelid closure (notes) [8]: pressure applied to close eyelid | eyelid closure (notes) (Group B 3 mg/ml, Day 3 afternoon): pressure applied to close eyelid | eyelid closure (notes) (Group B 3 mg/ml, Day 3 morning): pressure applied to close eyelid | eyelid closure (notes) (Group B 3 mg/ml, Day 4 morning): pressure applied to close eyelid
